Experimental data as given in patent US7264932B2, “Nuclease inhibitor cocktail” (Applera Corporation, priority 1999, dated 2007).

Legend:
Format in all cases: biochemical
[1] = biological target: T1, RNase A (Bos taurus, UniProt P61823); assay: Radiolabeled RNA probe degradation gel assay, RNase A; settings: DTT up to 250 mM, at 37° C.
T1 sequence (P61823 27-150): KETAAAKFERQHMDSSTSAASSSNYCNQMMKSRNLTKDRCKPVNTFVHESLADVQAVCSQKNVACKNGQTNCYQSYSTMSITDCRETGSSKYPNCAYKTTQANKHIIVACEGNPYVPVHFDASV
Experimental: The activity of an anti-nuclease cocktail is readily determined using radiolabeled RNA or DNA to detect the inhibition of nuclease by anti-nuclease antibodies in the anti-nuclease cocktail. […] Assay buffer, nuclease and an anti-nuclease cocktail are then added to 0.5 ml microfuge tubes. A mixture comprising assay buffer, RNA or DNA and radiolabeled RNA or DNA is added to the microfuge tubes, and the tubes are vortexed and microfuged. After incubation of the tubes at 37° C. for 30 minutes, a portion of the tube contents is removed and placed into gel loading buffer. After mixing, the combination is loaded onto a gel, typically a 8M urea/5% acrylamide gel, which is exposed to film.
Radiolabeled RNA was used to detect the inhibition of RNase A, RNase T1, and RNase 1 by specific antibodies.
The “MIX” was prepared by combining 10× Assay Buffer (0.9 μl/rxn), 5 mg/ml yeast RNA (0.4 μl/rxn), ^32P-labeled β actin RNA (1 μl/rxn), and nuclease-free H2O (6.7 μl/rxn), for a total of 9 μl/rxn.
1× Assay Buffer was added first. Then Specific RNase Cocktail, Specific Anti-RNase Cocktail and MIX were added. The tubes are vortexed and microfuged, then incubated at 37° C. for 30 min (Table 9).
At the end of the incubation time, 10 μl of solution was removed from the tube and placed into 10 μl Gel Loading Buffer II. The combination was mixed thoroughly and loaded onto a 8M urea/5% acrylamide gel. The gel was exposed to film for 30 min. at −80° C. with an intensifying screen.

[2] = biological target: E. coli RNase 1 (Escherichia coli, UniProt P21338); assay: Radiolabeled RNA probe degradation gel assay, RNase 1; settings: 1 U RNase 1, 30 minute incubation at 37° C.
Experimental: (§1) The activity of anti-nuclease antibodies is readily determined using radiolabeled RNA or DNA to detect the inhibition of RNase or DNase by the anti-nuclease antibodies. In general, the nuclease and anti-nuclease antibody are separately diluted, typically in 1× assay buffer. Assay buffer, nuclease and anti-nuclease antibody are then added to 0.5 ml microfuge tubes. For assaying anti-RNase activity, a mixture comprising assay buffer, RNA and radiolabeled RNA is added to the microfuge tubes. The “MIX” of assay buffer, RNA and radiolabeled RNA is generally prepared by combining 10× Assay Buffer (0.9 μl/rxn), 5 mg/ml yeast RNA (0.4 μl/rxn), ^32-β actin RNA (1 μl/rxn), and nuclease-free H2O (6.7 μl/rxn) for a total of 9 μl/rxn. The tubes are vortexed and microfuged, then incubated at 37° C. for 30 minutes. After incubation, a portion of the tube contents is removed and placed into gel loading buffer. Then the tube contents and the gel loading buffer are mixed, and the combination is loaded onto a gel, typically a 8M urea/5% acrylamide gel, which is exposed to film. […]
(§2) The activity of an anti-nuclease cocktail is readily determined using radiolabeled RNA or DNA to detect the inhibition of nuclease by anti-nuclease antibodies in the anti-nuclease cocktail. […]

[3] = biological target: T2, RNase T1 (Aspergillus oryzae, UniProt P00651); assay: Radiolabeled RNA probe degradation gel assay, RNase T1; settings: 0.15 U RNase T1
T2 sequence (P00651 27-130): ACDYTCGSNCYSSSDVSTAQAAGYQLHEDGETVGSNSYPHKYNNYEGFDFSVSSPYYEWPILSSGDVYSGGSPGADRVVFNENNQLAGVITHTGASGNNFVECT
Experimental: as §1, §2

Sequence of E. coli RNase 1 (P21338 24-268): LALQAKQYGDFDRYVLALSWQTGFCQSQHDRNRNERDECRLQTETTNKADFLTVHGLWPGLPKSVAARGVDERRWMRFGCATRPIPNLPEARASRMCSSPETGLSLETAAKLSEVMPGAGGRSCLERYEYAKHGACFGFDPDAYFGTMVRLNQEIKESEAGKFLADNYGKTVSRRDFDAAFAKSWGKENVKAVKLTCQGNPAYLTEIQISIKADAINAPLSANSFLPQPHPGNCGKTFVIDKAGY

O[C@H](CS)[C@H](O)CS (racemic) [DTT, dithiothreitol]
inhibition of RNase A activity [1]: At 37° C., DTT up to 250 mM did not inhibit RNase Aactivity.
concentration that inhibited RNase 1 [2]: 1–3 mM DTT inhibited 1 U RNase 1 during 30 minute incubation at 37 °C
concentration that inhibited RNase T1 [3]: 5–10 mM DTT inhibited 0.15 U RNase T1
